Reference: US6083940A, “Method and composition for effecting contraception in a mammalian male” (SRI International, priority 1998, dated 2000)
“Also recorded” adds a separate entry of the source.

Experiments:
[1] = biological target: T1, Rat Prostate Androgen Receptor (Rattus norvegicus, UniProt P15207); experiment: Rat Prostate Androgen Receptor Competition Assay; assay type: binding; conditions: for Relative Binding Affinity: 5α-DHT set at 100, conc. of 5αDHT at 50% binding inhibition/conc. competitor at 50% binding inhibition × 100; for Relative androgen receptor binding affinity: Table 3, repeats the values of Table 1; for affinity for the rat prostate androgen receptor compared with other known antiandrogens: in words
T1 construct: from tissue; host or cells: prostate cytosol (100,000×g supernatant) of gonadectomized male rats
T1 sequence (P15207 1-902): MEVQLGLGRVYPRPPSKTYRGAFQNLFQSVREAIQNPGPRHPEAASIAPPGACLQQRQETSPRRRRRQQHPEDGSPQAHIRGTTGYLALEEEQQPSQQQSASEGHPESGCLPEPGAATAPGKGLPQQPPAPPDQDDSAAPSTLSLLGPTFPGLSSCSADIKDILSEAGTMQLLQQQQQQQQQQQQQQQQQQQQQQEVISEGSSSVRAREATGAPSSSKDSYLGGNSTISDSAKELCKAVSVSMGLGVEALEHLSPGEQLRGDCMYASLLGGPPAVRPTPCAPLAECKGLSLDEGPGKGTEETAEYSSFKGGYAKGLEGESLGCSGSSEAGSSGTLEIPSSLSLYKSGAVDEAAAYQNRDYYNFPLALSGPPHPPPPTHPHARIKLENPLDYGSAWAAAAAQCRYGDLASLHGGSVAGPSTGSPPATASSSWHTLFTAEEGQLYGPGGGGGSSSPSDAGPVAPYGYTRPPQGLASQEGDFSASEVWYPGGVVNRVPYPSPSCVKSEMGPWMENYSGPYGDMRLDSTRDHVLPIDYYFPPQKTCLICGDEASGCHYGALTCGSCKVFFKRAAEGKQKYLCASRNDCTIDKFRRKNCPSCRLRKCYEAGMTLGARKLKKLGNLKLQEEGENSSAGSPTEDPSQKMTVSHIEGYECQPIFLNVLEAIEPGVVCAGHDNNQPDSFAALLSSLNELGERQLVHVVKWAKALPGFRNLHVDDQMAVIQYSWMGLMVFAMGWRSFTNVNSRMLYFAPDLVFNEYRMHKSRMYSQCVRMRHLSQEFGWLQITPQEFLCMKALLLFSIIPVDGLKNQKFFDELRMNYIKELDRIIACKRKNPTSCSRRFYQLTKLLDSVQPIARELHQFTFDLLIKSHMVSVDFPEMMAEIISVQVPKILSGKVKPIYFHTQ
Method: Male rats were gonadectomized 20-22 hours before killing. The animals were killed by decapitation and exsanguination. Prostates were kept on ice immediately after removal from the animals. After trimming off the fats, prostates were minced and homogenized in 3 volumes of Tris-HCl buffer (0.02 M, pH 7.4 containing 1.5 mM EDTA and 10% glycerol). The homogenate was centrifuged at 10,000×g for 10 minutes, and the resulting supernatant was centrifuged again at 100,000×g for 60 minutes. The final supernatant contained the androgen-binding receptor.
The mixture was brought up to 1.0 mL with Tris-HCl buffer used for homogenizing the tissue. The mixture was then incubated at 4° C. for 4 hr., with occasional shaking. At the end of incubation, the receptor-bound androgen was isolated by ammonium sulfate precipitation.
A 70% saturated ammonium sulfate solution was prepared and its pH is adjusted to 7.4 with aqueous NH3. To 1.0 mL of the labeled cytosol, 1.0 mL of the 70% saturated ammonium sulfate was added dropwise with gentle mixing. The sample was let stand at 0-4° C. for 35 minutes, then centrifuged at 10,000×g for 20 minutes. The precipitate was resuspended in 1.0 mL of the above-mentioned Tris-HCl buffer containing 2 mg of bovine albumin. The androgen-receptor complex was immediately reprecipitated by addition of equal volumes of 70% saturated ammonium sulfate. The sample was allowed to stand at 0-4° C. for another 45 minutes, then centrifuged again as outlined above. The supernatant was decanted and the walls of the tubes thoroughly dried with filter paper. The final precipitated protein was resuspended in 1.0 mL of the same buffer and then transferred quantitatively into a counting vial containing 10 mL of Scintisol for counting.

[2] = system: rat ventral prostate explant cultures (prostatein C3 mRNA); experiment: Measurement of Prostatein C3 mRNA in rat ventral prostate explant culture
Text: Testosterone was used as a control. […] Addition of androgens to the medium of rat prostate explant cultures maintains the mRNA for C3 subunit of prostatein, and measurement of either prostatein or its C3 subunit mRNA serves as a sensitive, androgen-responsive marker for the explant system.

[3] = system: SEX ACCESSORY GLANDS AND TESTES OF 22-DAY OLD CASTRATED MALE RATS; experiment: Inhibition of Prostate Growth in Castrated Male Rats (testosterone supplemented); assay type: in vivo, rat; conditions: for In Vivo Percent Inhibition of Ventral Prostate Weight: castrated male rats given supplemental testosterone; for Final BW / Seminal Vesicle weight / Ventral Prostate weight: ten days, mean ± SE; for inhibition of prostate growth stimulated by exogenous testosterone: male castrated rats, in words
Method: Male rats weighing 36 to 38 grams were castrated at the age of 22 days. […] The castrated rats were treated with the steroids once daily for ten consecutive days. On the tenth day following treatment, the rats were sacrificed and autopsied and final seminal vesicle weights and ventral prostate weights determined.

[4] = system: 22 day old castrated male rats, seminal vesicle and ventral prostate; experiment: standard Hershberger androgenic assay (agonist androgenic activity); assay type: in vivo, rat; conditions: for dose response curves for androgenic activity: 22 day old castrated male rats; for agonist androgenic activity at the therapeutically effective antiandrogenic dose: by extrapolation to 30.0 mg, castrated male rat; for seminal vesicle weight (agonist androgenic activity) / ventral prostate weight (agonist androgenic activity): doses of 0.8 mg, 1.6 mg, and 3.2 mg, versus vehicle alone; for effect of drug dosage on prostate weight (FIG. 1): increasing dose, in words
[5] = system: SEX ACCESSORY GLANDS AND TESTES OF INTACT SPRAGUE-DAWLEY MALE RATS; experiment: Effect of Different Doses of Antiandrogen Compound III-1 on Sex Accessory Glands and Testes of Intact Sprague-Dawley Male Rats; assay type: in vivo, Sprague-Dawley rat; conditions: for Body Weight / Epididymus weight / Seminal Vesicle weight / Ventral Prostate weight / Testes weight: N=4, mean ± SE; for Seminal Vesicle weight: P < .005; for Ventral Prostate weight: P < .01
Text: The foregoing procedures were used to evaluate the effect of antiandrogen compound III-1 on the sex accessory glands and tests of intact Sprague-Dawley male rats. As may be seen in the Table, […], indicating antagonism on the effect of the testosterone produced.
^a Administered subcutaneously once daily for 12 days

[6] = dihydrotestosterone 25 nM alone, N=3
[7] = compound 30.0 mg/day + testosterone propionate 0.6 mg/day
[8] = testosterone propionate 0.6 mg/day alone, N=5
[9] = 10 mg/day subcutaneously once daily for 12 days, statistically lower than control
[10] = 30 mg/day subcutaneously once daily for 12 days, statistically lower than control, P < .001
[11] = 30 mg/day subcutaneously once daily for 12 days, statistically lower than control
[12] = III-1 2500 nM with dihydrotestosterone 25 nM, N=2

SMILES: CC(C)(O)C(=O)Nc1ccc([N+](=O)[O-])c(C(F)(F)F)c1 [Hydroxyflutamide, reference compound]
- Relative Binding Affinity [1]: 2.6
- Relative androgen receptor binding affinity [1]: 2.6

SMILES: C[C@]12CCC(=O)C[C@@H]1CC[C@@H]1[C@@H]2CC[C@]2(C)[C@@H](O)CC[C@@H]12 [5α-Dihydrotestosterone, reference compound]
- C3/28s × 100, percent of dihydrotestosterone [2, 6]: 100%
- C3 m-RNA, percent of dihydrotestosterone [2, 6]: 100%
- C3 m-RNA ([2]; dihydrotestosterone 25 nM alone, N=3, 30 disks/explant, printed spread ± 32,675): 219,371
- C3/28s × 100 ([2]; dihydrotestosterone 25 nM alone, N=3, printed spread ± 26.9): 148.9

SMILES: CCC[C@]1(O)CC[C@H]2[C@@H]3CCC4=CC(=O)CCC4=C3CC[C@@]21C [Compound II-1, 17α-Propylestra-4,9-dien-17β-ol-3-one]
- Relative Binding Affinity [1]: 5.7
- Relative androgen receptor binding affinity [1]: 5.7
- affinity for the rat prostate androgen receptor compared with other known antiandrogens [1]: higher affinity for the androgen rat prostate receptor than all of the other known antiandrogens except cyproterone acetate; also recorded: higher affinity for the rat ventral prostate androgen receptor than the steroidal antiandrogen zanoterone (WIN®49,596); also recorded: higher affinity to the androgen receptor than three other nonsteroidal antiandrogen receptor antagonists flutamide, which is available as an antiandrogen in the United States, nilutamide, developed by Roussel in France, and Casodex® (ICI 176,334)
- In Vivo Percent Inhibition of Ventral Prostate Weight [3]: 18.8 ± 5.74%
- Final BW [3, 7]: 88 ± 5 g
- Seminal Vesicle weight [3, 7]: 28.2 ± 2.8 mg
- Ventral Prostate weight [3, 7]: 45.3 ± 2.5 mg
- inhibition of prostate growth stimulated by exogenous testosterone [3]: inhibit prostate growth stimulated by exogenous testosterone
- dose response curves for androgenic activity [4]: Very flat dose response curves
- agonist androgenic activity at the therapeutically effective antiandrogenic dose [4]: essentially devoid of agonist androgenic activity
- seminal vesicle weight (agonist androgenic activity) [4]: equal to the vehicle alone controls
- ventral prostate weight (agonist androgenic activity) [4]: equal to the vehicle alone controls
- effect of drug dosage on prostate weight (FIG. 1) [4]: fairly steady prostate weight, even at higher doses

SMILES: CCC(=O)O[C@H]1CC[C@H]2[C@@H]3CCC4=CC(=O)CC[C@]4(C)[C@H]3CC[C@]12C [Testosterone propionate, reference compound]
- Final BW [3, 8]: 86 ± 4 g
- Seminal Vesicle weight [3, 8]: 26.6 ± 34 mg
- Ventral Prostate weight [3, 8]: 53.4 ± 5.8 mg

SMILES: CC(=O)O[C@]1(C(C)=O)CC[C@H]2[C@@H]3C=C(Cl)C4=CC(=O)[C@@H]5C[C@@H]5[C@]4(C)[C@H]3CC[C@@]21C [Cyproterone acetate, reference compound]
- In Vivo Percent Inhibition of Ventral Prostate Weight [3]: 54.3 ± 8.34%
- Seminal Vesicle weight [3, 7]: 9.8 ± 0.8 mg
- Ventral Prostate weight [3, 7]: 30.0 ± 3.6 mg

SMILES: C[C@]12Cc3nonc3C[C@@H]1CC[C@@H]1[C@@H]2CC[C@@]2(C)[C@H]1CC[C@@]21CCCO1 [Compound III-1, 2',3'α-Tetrahydrofuran-2'-spiro-17-(5α-androstan(2,3-c]furazan]
- Relative Binding Affinity [1]: 5.8
- Relative androgen receptor binding affinity [1]: 5.8
- affinity for the rat prostate androgen receptor compared with other known antiandrogens [1]: higher affinity for the androgen rat prostate receptor than all of the other known antiandrogens except cyproterone acetate; also recorded: higher affinity for the rat ventral prostate androgen receptor than the steroidal antiandrogen zanoterone (WIN®49,596); also recorded: higher affinity to the androgen receptor than three other nonsteroidal antiandrogen receptor antagonists flutamide, which is available as an antiandrogen in the United States, nilutamide, developed by Roussel in France, and Casodex® (ICI 176,334)
- In Vivo Percent Inhibition of Ventral Prostate Weight [3]: 32.2 ± 9.49%
- Final BW [3, 7]: 89 ± 5 g
- Seminal Vesicle weight [3, 7]: 22.5 ± 1.1 mg
- Ventral Prostate weight [3, 7]: 39.5 ± 4.1 mg
- inhibition of prostate growth stimulated by exogenous testosterone [3]: inhibit prostate growth stimulated by exogenous testosterone
- Body Weight ([5]; 10 mg/day subcutaneously once daily for 12 days, not statistically different from control): 295 ± 5 g
- Epididymus weight ([5]; 10 mg/day subcutaneously once daily for 12 days, statistically lower than control, P < .001): 524 ± 48 mg
- Seminal Vesicle weight [5, 9]: 225 ± 40 mg
- Ventral Prostate weight [5, 9]: 170 ± 13 mg
- Testes weight ([5]; 10 mg/day subcutaneously once daily for 12 days, statistically lower than control, P < .02): 2.552 ± 111 g
- Epididymus weight [5, 10]: 458 ± 39 mg
- Testes weight [5, 10]: 1.942 ± .062 g
- Seminal Vesicle weight [5, 11]: 242 ± 61 mg
- Ventral Prostate weight [5, 11]: 148 ± 28 mg
- Body Weight ([5]; 30 mg/day subcutaneously once daily for 12 days, statistically lower than control, P < .05): 277 ± 9 g
- magnitude of prostatic growth inhibition, dose dependence ([5]; Table 4, tentative conclusion): appears to be dose dependent
- dose response curves for androgenic activity [4]: Very flat dose response curves
- agonist androgenic activity at the therapeutically effective antiandrogenic dose [4]: essentially devoid of agonist androgenic activity
- seminal vesicle weight (agonist androgenic activity) [4]: equal to the vehicle alone controls
- ventral prostate weight (agonist androgenic activity) [4]: equal to the vehicle alone controls
- effect of drug dosage on prostate weight (FIG. 1) [4]: fairly steady prostate weight, even at higher doses
- C3/28s × 100, percent of dihydrotestosterone [2, 12]: 62%
- C3 m-RNA, percent of dihydrotestosterone [2, 12]: 43%
- C3 m-RNA ([2]; III-1 2500 nM with dihydrotestosterone 25 nM, N=2, 30 disks/explant, printed spread ± 1,603): 95,130
- C3/28s × 100 ([2]; III-1 2500 nM with dihydrotestosterone 25 nM, N=2, printed spread ± 0.8): 91.8
- anti-androgenic activity ([2]; III-1/dihydrotestosterone formulation, in words): marked anti-androgenic activity

SMILES: C#C[C@]1(O)CC[C@H]2[C@@H]3CC[C@H]4Cc5nn(S(C)(=O)=O)cc5C[C@]4(C)[C@H]3CC[C@@]21C [Win 49,596, zanoterone, reference compound]
- Relative Binding Affinity [1]: 2.2
- Relative androgen receptor binding affinity [1]: 2.2

SMILES: C[C@]12CC[C@H]3[C@@H](CCC4=CC(=O)CC[C@@]43C)[C@@H]1CC[C@@H]2O [testosterone, reference compound]
- effect of drug dosage on prostate weight (FIG. 1) [4]: proportionate rise in prostate weight with increasing dose
